From paper PMC6862250, “Lipophilicity Determination of Quaternary (Fluoro)Quinolones by Chromatographic and Theoretical Approaches” (International Journal of Molecular Sciences, 2019) come the findings set out here.

Holding throughout (assay type): physicochemical
The nature of data set [1]: RP-TLC lipophilicity, silica gel C18, methanol-water. Particulars: for C 0: RP-TLC silica gel C18, C0 = −RM^0/b; for PC1: RP-TLC silica gel C18, first principal component of RM values, contains 86.92% of information; for mRM: RP-TLC silica gel C18, mean value of RM; for R M ^0: RP-TLC silica gel C18, methanol-water 40 to 70% (v/v), intercept of Soczewiński–Wachtmeister equation; for b: RP-TLC silica gel C18, slope of Soczewiński–Wachtmeister equation. As to the method: (§1) The ready-to-use TLC glass plates covered by octadecyl(C18)- and octyl(C8)-modified TLC silica layers were purchased from Merck (Darmstadt, Germany). Stock solutions (5 µL) of the analytes were spotted manually on the plates with the use of a micropipette from Brand (Wertheim, Germany). The mobile phases were prepared by mixing appropriate volumes of pure organic solvents and water (in step gradient by 10% (v/v)), in the following proportions: (a) methanol–water ranging from 30 to 70% (v/v), in the case of C8-bonded silica gel stationary phase; and (b) methanol–water ranging from 40 to 70% (v/v), in the case of C18-bonded silica gel stationary phase.
(§2) Before analysis, the chromatographic chamber (Twin Trough Chambers from CAMAG Philadelphia, USA) was saturated for 20 min. All TLC experiments were performed at room temperature (22 ± 2 °C). Chromatograms were developed using the ascending technique to a distance of 8 cm. The investigated substances were visualized under UV light at λ = 366 nm by CAMAG UV Lamp 4 and the Viewing Box 4 (Philadelphia, USA). […] The obtained retardation factors (RF) were collected in the Supplementary data sheets. The retention parameter, RM, was calculated for each compound according to the Bate-Smith and Westall formula: (7) RM=log(1/RF−1) and listed in Table S2. Next, the Soczewiński–Wachtmeister’s equation: RM = RM^0 + bC(8) was used in order to determine the basic lipophilic RP-TLC parameter RM^0 as well as commonly used hydrophobic constants m. Soczewiński–Wachtmeister’s equation presented a linear relationship between concentration of the organic solvent in mobile phase (C) and RM value. Moreover, mean value of RM was used for lipophilicity assessments.
(§3) Furthermore, C0 RP-TLC lipophilicity parameter, introduced by Bieganowska, has been calculated according to the formula:(9) C0=−RM^0/b.
(§4) The C0 parameter corresponds to the parameter φ0, previously proposed for the HPLC. This parameter relates to the concentration of the organic component in the mobile phase for which the distribution of the analyzed substance between the mobile and stationary phase is equal (1:1).
(§5) Also, the principal component analysis (PCA) was applied in order to extract information regarding the lipophilicity of solutes and formulate them as the first principal component (PC1). Calculation data matrixes included RM values of solutes for each modifier concentration in the mobile phase.

Data set [2] can be described thus: RP-TLC lipophilicity, silica gel C8, methanol-water. Particulars: for C 0: RP-TLC silica gel C8, C0 = −RM^0/b; for PC1: RP-TLC silica gel C8, first principal component of RM values, contains 83.57% of information; for mRM: RP-TLC silica gel C8, mean value of RM; for R M ^0: RP-TLC silica gel C8, methanol-water 30 to 70% (v/v), intercept of Soczewiński–Wachtmeister equation; for b: RP-TLC silica gel C8, slope of Soczewiński–Wachtmeister equation. As to the method:
as §1, §2, §3, §4, §5

Data set [3] can be described thus: MEKC lipophilicity (SDS micelles, pH 7.4). To be noted: 50 mM SDS, HEPES/TRIS buffer pH 7.4, 25 °C. As to the method: All MEKC experiments were carried out with a P/ACE MDQ plus system (Sciex, Framingham, MA, USA) equipped with photodiode array detector (PDA) and controlled by 32 Karat software (version 10.2). The uncoated fused silica capillaries (50 µm i.d., Polymicro Technologies, West Yorkshire, UK) of 60 cm total length and 50.2 cm effective length were used. Prior to analysis, the capillary was rinsed with 0.1 M NaOH for 30 min, ultrapure water for 10 min, and background electrolyte (BGE) for 30 min. After each analysis, the capillary was conditioned with BGE for 2 min. The applied pressure for all rinsing operations was 345 kPa. The analytes were dissolved in BGE at concentration of 100 µg/mL with addition of quinine (micelles marker). As electroosmotic flow (EOF) marker, DMSO was used. The samples were hydrodynamically injected at 35 kPa for 5 s. The separations were performed by applying voltage of 20 kV with positive polarity and constant temperatures at 25 ± 0.1 °C. The BGE consisted of aqueous solution of 50 mM SDS and 120 mM HEPES /100 mM TRIS buffer of pH 7.4. The BGE was prepared each working day by dilution of stock solution. Detection was carried out at 200 and 280 nm with 8 Hz probing frequency. The logarithm of retention factor logk was calculated according to the equation introduced by Terabe and co-workers:(10) logkMEKC=log(tR−tEOF/tEOF(1−tR/tMC)) The established logk parameters are summarized in Table 2.

Molecules are shown by their SMILES.

Consider `CCn1cc(C(=O)O)c(=O)c2cc(F)c(N3CCNCC3)nc21` [Compound 23, enoxacin, reference compound], for which, in data set [1], the “C 0” value is given as 1.37, the PC1 is given as −3.86, the mRM was 1.62 and the “R M ^0” value is reported as 2.70. For the same molecule, in data set [1], the b is −1.98. Besides, in data set [2], the “C 0” value was 1.23, the PC1 is reported as −5.38, the mRM was 1.45 and the “R M ^0” value is on record as 2.45. In addition, the b in data set [2] is reported as −2.00. Further, the logk in data set [3] came out at 0.156. In addition, the logk in data set [3] (listed as enoxacin) is 0.1564.
Consider `COc1c(N2CC[N+]3(CN4C(=N3)C(C(=O)O)=Cc3ccccc34)C(C)C2)c(F)cc2c(=O)c(C(=O)O)cn(C3CC3)c12.[Cl-]` (centres unmarked) [Compound 2], for which, in data set [1], the “C 0” value turned out to be 0.84, the PC1 came to 0.81, the mRM was found to be 0.95 and the “R M ^0” value was 2.78. The b in data set [1] was −3.31. In data set [2], the “C 0” value is 0.89, the PC1 is −2.22, the mRM was found to be 1.01 and the “R M ^0” value turned out to be 2.31. In data set [2], this molecule displayed a b of −2.61. In data set [3], this molecule yielded a logk of −0.125.
Turning to `COc1c(N2CC[N+]3(CN4C(C)=CC(C)=C(C(=O)O)C4=N3)C(C)C2)c(F)cc2c(=O)c(C(=O)O)cn(C3CC3)c12.[Cl-]` (centres unmarked) [Compound 13], in data set [1], the “C 0” value stood at 0.88, the PC1 was 1.74, the mRM is 0.82 and the “R M ^0” value is 2.18. In data set [1], the b is on record as −2.47. Besides, in data set [2], the “C 0” value was 0.92, the PC1 is −0.64, the mRM was determined as 0.83 and the “R M ^0” value stood at 1.82. In data set [2], the b is reported as −1.97. The molecule also registered a logk in data set [3] of −0.408.
`CCn1cc(C(=O)O)c(=O)c2cc(F)c(N3CC[N+]4(CC3)CN3C(=N4)C(C(=O)O)=Cc4ccccc43)nc21.[Cl-]` [Compound 7]: in data set [1], the “C 0” value turned out to be 1.17, the PC1 is given as 0.48, the mRM is reported as 0.99 and the “R M ^0” value is listed as 1.87. The b in data set [1] is −1.60. In data set [2], the “C 0” value amounted to 1.23, the PC1 is reported as −2.01, the mRM is listed as 1.05 and the “R M ^0” value was found to be 1.76. This molecule came in with a b in data set [2] of −1.43. Further, the logk in data set [3] was −0.239.
As to `CCn1cc(C(=O)O)c(=O)c2cc(F)c(N3CC[N+]4(CC3)CN3C(C)=CC(C)=C(C(=O)O)C3=N4)cc21.[Cl-]` [Compound 12], in data set [1], the “C 0” value worked out at 1.00, the PC1 came out at 1.97, the mRM is 0.78 and the “R M ^0” value stood at 1.75. In data set [1], this molecule returned a b of −1.75. In addition, in data set [2], the “C 0” value is 1.00, the PC1 is −0.38, the mRM was found to be 0.82 and the “R M ^0” value came out at 1.63. Besides, in data set [2], the b is listed as −1.63. In data set [3], this molecule gave a logk of −0.272.
As for `CCn1cc(C(=O)O)c(=O)c2cc(F)c(N3CC[N+]4(CC3)CN3C(=N4)C(C(=O)O)=Cc4ccccc43)cc21.[Cl-]` [Compound 1], in data set [1], the “C 0” value turned out to be 1.21, the PC1 came out at 0.72, the mRM amounted to 0.96 and the “R M ^0” value is recorded as 1.65. In data set [1], the b is listed as −1.36. Moreover, in data set [2], the “C 0” value was 1.04, the PC1 was −2.23, the mRM turned out to be 1.03 and the “R M ^0” value came out at 1.99. The molecule also gave a b in data set [2] of −1.92. The logk in data set [3] is listed as −0.104.
Regarding `CCn1cc(C(=O)O)c(=O)c2cc(F)c(N3CCNCC3)cc21` [Compound 18, reference compound], in data set [1], the “C 0” value is 1.24, the PC1 is listed as −2.34, the mRM is recorded as 1.40 and the “R M ^0” value was found to be 2.54. In data set [1], this molecule displayed a b of −2.06. Moreover, in data set [2], the “C 0” value is 1.27, the PC1 is −5.56, the mRM is 1.47 and the “R M ^0” value stood at 2.43. In data set [2], the b is listed as −1.90. The logk in data set [3] is 0.103.
Consider `CC1=CC(C)=C(C(=O)O)C2=N[N+]3(CN12)C(C)CN(c1c(F)c(N)c2c(=O)c(C(=O)O)cn(C4CC4)c2c1F)CC3C.[Cl-]` (centres unmarked) [Compound 14], for which, in data set [1], the “C 0” value stood at 0.86, the PC1 was 1.32, the mRM is 0.88 and the “R M ^0” value is 2.45. The molecule also registered a b in data set [1] of −2.84. In data set [2], the “C 0” value is recorded as 0.86, the PC1 is reported as −1.79, the mRM turned out to be 0.96 and the “R M ^0” value stood at 2.29. Also, in data set [2], the b is reported as −2.66. This molecule returned a logk in data set [3] of −0.261.
In the case of `CC1=CC(C)=C(C(=O)O)C2=N[N+]3(CCN(c4cc5c(cc4F)c(=O)c(C(=O)O)cn5C4CC4)CC3)CN12.[Cl-]` [Compound 4], in data set [1], the “C 0” value is listed as 0.94, the PC1 is 2.36, the mRM worked out at 0.72 and the “R M ^0” value amounted to 1.74. The b in data set [1] is reported as −1.85. Moreover, in data set [2], the “C 0” value came to 0.94, the PC1 was −0.58, the mRM is recorded as 0.84 and the “R M ^0” value is recorded as 1.79. The same molecule registered a b in data set [2] of −1.90. Moreover, the logk in data set [3] was −0.321.
For the molecule `COc1c(N2CC3CCC[N+]4(CN5C(=N4)C(C(=O)O)=Cc4ccccc45)C3C2)c(F)cc2c(=O)c(C(=O)O)cn(C3CC3)c12.[Cl-]` (centres unmarked) [Compound 15], in data set [1], the “C 0” value came out at 0.84, the PC1 is reported as −1.12, the mRM is listed as 1.24 and the “R M ^0” value is 3.56. The b in data set [1] is −4.21. Besides, in data set [2], the “C 0” value was found to be 0.91, the PC1 was −3.52, the mRM stood at 1.19 and the “R M ^0” value is given as 2.63. Also, in data set [2], the b was −2.88. The same molecule showed a logk in data set [3] of −0.250.
On to `CCn1cc(C(=O)O)c(=O)c2cc(F)c(N3CC[N+]4(CN5C(=N4)C(C(=O)O)=Cc4ccccc45)C(C)C3)c(F)c21.[Cl-]` (centres unmarked) [Compound 5], for which, in data set [1], the “C 0” value is listed as 0.93, the PC1 is recorded as 0.88, the mRM is 0.94 and the “R M ^0” value was 2.29. Besides, in data set [1], the b is −2.45. In data set [2], the “C 0” value stood at 1.04, the PC1 is −1.69, the mRM worked out at 0.98 and the “R M ^0” value is on record as 1.90. In data set [2], this molecule showed a b of −1.83. In data set [3], this molecule yielded a logk of −0.265.
